Measurements reported in US8962549B2, “Polymeric benzyl carbonate-derivatives” (Baxter International Inc., priority 2008, dated 2015).

Assay: Release of tryptophan from PEG-tryptophan: incubation in cleavage buffer at 37° C., HPLC analysis
Type: physicochemical
Settings: detection at 280 nm
Experimental: A 0.10 mL aliquot of the PEGylated tryptophan reaction solution from Example 7 was diluted with 0.60 mL PBS buffer (0.10 M, NaCl, 0.10 M, Glycine 0.10M, pH 7.5) and incubated at 37° C. in an oven. Aliquots of 0.10 mL were withdrawn at incubation intervals of 2, 7, 32 and 102 hours, and were quenched with 10 μl of HCl (1.0 N diluted with 0.4 mL 20% acetonitrile containing 0.01% trifluoroacetic acid) for HPLC analysis (0.10 mL injection).
The above procedure was repeated using a cleavage solution with a pH of 8.5 and incubation intervals of 1, 6, 24, and 32 hours.
Both the PEG-tryptophan (Example 7) and cleavage samples were analyzed on C-18 reversed-phase HPLC with detection at 280 nm. The HPLC conditions are the following: C-18 column (Waters Symmetry, 4.6×250 mm), flow rate of 1.0 mL/min, gradient of acetonitrile 20% to 80% over 15 minutes followed by 10 minutes of washing at 80% acetonitrile (all contain 0.01% trifluoroacetic acid).

## N[C@@H](Cc1c[nH]c2ccccc12)C(=O)O [Tryptophan]
pH 7.5 PBS with glycine 0.10 M, incubation time 2 hours
  contents (HPLC integration area) of cleavage reaction: 596
pH 7.5 PBS with glycine 0.10 M, incubation time 7 hours
  contents (HPLC integration area) of cleavage reaction: 647
pH 7.5 PBS with glycine 0.10 M, incubation time 32 hours
  contents (HPLC integration area) of cleavage reaction: 1329
pH 7.5 PBS with glycine 0.10 M, incubation time 102 hours
  contents (HPLC integration area) of cleavage reaction: 2955
pH 8.5 cleavage solution, incubation time 1 hour
  contents (HPLC integration area) of cleavage reaction: 735
pH 8.5 cleavage solution, incubation time 6 hours
  contents (HPLC integration area) of cleavage reaction: 1183
pH 8.5 cleavage solution, incubation time 24 hours
  contents (HPLC integration area) of cleavage reaction: 2442
pH 8.5 cleavage solution, incubation time 32 hours
  contents (HPLC integration area) of cleavage reaction: 2498
